The values below come from publication PMC9011347, “Small-Molecule Inhibitors Targeting Lipolysis in Human Adipocytes” (Journal of the American Chemical Society, 2022).

Each structure is given as a SMILES string.

One assay relates to pig ATGL. Kind of assay: TAG hydrolase assay, Expi293 lysates expressing ATGL orthologue. In kind it is biochemical. Conditions: NG-497 50 μM. An excerpt:
(§1) We previously developed Atglistatin (Ai), a selective inhibitor of mouse ATGL,[31],[32] which is ineffective against human ATGL.[17] Ai acts as a competitive inhibitor targeting the minimal active domain of ATGL ranging from aa 1–254.[33] This domain is highly conserved in different mammalian species (∼90% identity, Table 1) and comprises the patatin-like domain, eponymous for all members of the patatin-like phospholipase domain-containing (PNPLA) protein family.[34] We first investigated the species selectivity of Ai by performing TAG hydrolase assays[35] with lysates from Expi293 cells expressing ATGL orthologues of different species. The activity of ATGL is strongly stimulated by the co-activator protein comparative gene identification-58 (CGI-58, also known as α/β hydrolase domain containing 5, ABHD5)[36] and can be suppressed by the inhibitory protein G0/G1 switch 2 (G0S2).[37] We therefore determined ATGL activity in the presence and absence of mouse CGI-58, mouse G0S2, and Ai. As shown in Figure 1a–i, all ATGL orthologues were expressed, enzymatically active, stimulated by mouse CGI-58, and inactivated by mouse G0S2. Ai inhibited mouse (Figure 1a), rat (Figure 1b), goat (Figure 1c), dog (Figure 1e), and marmoset ATGL (Figure 1f), but not pig (Figure 1d), rhesus monkey (Figure 1g), or human ATGL (Figure 1h).
(§2) Experimental details, materials, and methods
(§3) Expression of recombinant ATGL constructs and preparation of cell lysates. Expi293 cells were cultivated in Expi293 Expression Medium (GIBCO, Thermo Fisher Scientific, Waltham, USA) at standard conditions (37°C, 5% CO2, 95% humidified atmosphere, 125 rpm). DNA constructs containing ATGL from different species and chimeric ATGL variants in pcDNA3.1(+)myc-His C Vector were obtained from BioCat GmbH (Heidelberg, Germany). Cells were transfected with ExpiFectamine293 Transfection Kit (GIBCO) in Opti-Mem reduced serum medium (GIBCO) according to the manufacturer’s instructions. After 48 h, cells were harvested by centrifugation and washed three times with PBS. Cells were disrupted in buffer A (0.25 M sucrose, 1 mM EDTA, 1 mM dithiothreitol, 20µg/ml leupeptin, 2 µg/ml antipain, 1 µg/ml pepstatin, pH 7.0) by sonication (Virsonic 475, Virtis, Gardiner, USA). Nuclei and debris were removed by centrifugation at 1,000 g and 4°C for 10 min. Protein concentrations were determined using Bio-Rad protein assay (Bio-Rad 785, Bio-Rad Laboratories, Munich, Germany) using BSA as standard.
(§4) Expression and purification of mouse CGI-58. CGI-58 was expressed and purified as described 1. In brief, the coding sequence of mouse Cgi-58 was cloned into pHis-Sumo and co-transformed with the plasmid pTf16 expressing the chaperone Tig into E. coli BL21(DE3). Cells were cultured overnight at 37°C and 180 rpm in the presence of 40 µg/ml kanamycin and 34 µg/ml chloramphenicol. Thereafter, cells were transferred into fresh LB medium, grown until OD600 of 0.6, and expression was induced by the addition of 0.5 mM IPTG. After overnight incubation at 30°C, cells were harvested at 4,500 x g and 4°C for 20 min, washed in 1x PBS, and resuspended in lysis buffer (20 mM Tris/HCl pH 7.8, 300 mM NaCl, 30 mM imidazole, 0.1% IGEPAL CA-630, 3.5 mM β-mercaptoethanol, 20 µg/ml leupeptin, 2 µg/ml antipain and 1 µg/ml pepstatin). Cells were incubated with 1 mg/ml lysozyme at 4°C for 20 min, disrupted by sonication, and lysates were centrifuged at 30,000 x g and 4°C for 40 min. His-CGI-58 was purified from the supernatant using an ÄKTA pure system (Cytiva, Uppsala, Sweden) equipped with a 5 ml HisTrap […]
(§5) Expression and purification of mouse G0S2. Chemically competent E. coli ArcticExpress (DE3) cells were transformed with the pST50-SMT3-TEV-mG0S2-His expression plasmid, plated on LB agar plates containing 100 ampicillin, and incubated […] overnight at 37°C. The next day, 10 ml LB medium supplemented with 100 μg/ml ampicillin, 20 μg/ml gentamycin and 2% glucose were inoculated with a single colony and incubated overnight at 37°C. […]

Another assay deals with rhesus monkey ATGL. The assay is described as above. In kind it is biochemical. Particulars: NG-497 50 μM.
Text: as §1, §2, §3, §4, §5

On to `CCOc1ccc(-c2cc(OC)cc(C(=O)OC(C)C)n2)cc1` [NG-497], for which the “reduction in TAG hydrolase activity” value in the assay with pig ATGL was “less than 20%”. The “inhibition of ATGL orthologue” value in the assay with rhesus monkey ATGL is listed as “inactivates”.
